“And” between values parts separate entries of the source, which are not always exact repeats. Equal values may be shown once.
Legend:
GL261 cells = assay: Cell multiplicity (CM) factor after one hour Tetrac exposure; assay type: cell-based, murine; details: after one hour exposure to Tetrac
Description: Cell multiplicity (CM) was determined from Giemsa stained slides by counting the number of cells per microcolony under 20× magnification. At least 400 microcolonies were counted.
The length of time that Tetrac biologically affected GL261 cells was also determined. To do this, the multiplicity relationship defined above was utilized. Tetrac was added to cells one hour prior to the determination of the multiplicity. After the exposure of exponentially growing GL261 cells to Tetrac, the Tetrac containing medium was removed from GL261 cells, which contained an unknown residual and fresh medium (without Tetrac) was added. As a function of time (i.e., 0, 1, 2, 3, 4, 6, 8, and 10 hours, and 1-6 days), the cells, containing an unknown residual amount of remaining Tetrac, were then processed for determination of the multiplicity index (i.e. the number of cells per microcolony).

[1] = tested on: GL261 murine brain tumor cells; assay: GL261 growth curve, cell volumes/areas and colony forming efficiency; assay type: cell-based
Description: 1×10^5 cells per 25 cm^2 flask at time zero (density 40 cells/mm^2). Three flasks were utilized at each time period. The medium in the flasks was not changed over the duration of the growth curve (unfed cultures). Data were taken daily from day zero to day 11.5 post-seeding and cell numbers, age distributions, and apoptotic percentages were determined. After growth curve shapes (without and with 2 μM tetrac) were determined, irradiation times at 70 and 270 hour post-seeding were chosen.
To obtain exponential and plateau phase cell numbers, we trypsinized ([…] trypsin-EDTA) cells for 5 min at 37° C.
For determination of CCDTs, the cell numbers per flask were determined on a daily basis. A four-day interval in the exponential region of growth to obtain the CCDTs, yielding a total of 12 estimations for analysis was utilized. A regression analysis was performed using the (log) of the cell number versus the linear time in days (SigmaPlot, V. 10, Systat Software, Inc., Point Richmond, Calif.). The log slope value and its standard error (SE) were determined, and the SE was converted to the 95% confidence limits using a two-tailed t-table at N−1 degrees of freedom where N is the number of samples. (See Goldstein, A. In: Biostatistics, New York, The MacMillan Co., 1964, p. 140-146).

SMILES: O=C(O)Cc1cc(I)c(Oc2cc(I)c(O)c(I)c2)c(I)c1 [Tetrac, tetraiodothyroacetic acid]
- time at which 50% decrease in the CM factor was recorded (GL261 cells): 60 h
- decrease of final saturation density ([1]; 2 μM Tetrac): about 50%
- saturation density of control relative to tetrac-treated cells ([1]; 2 μM Tetrac): approximately 2.4 times
- cell culture doubling time, Tetrac-treated GL261 cells ([1]; 2 μM Tetrac, exponential growth): 43.8 ± 3.8 h and 43.8 h
- onset of exponential growth ([1]; 2 μM Tetrac, control 20 hours): about 40 hours
- Mean nuclear area (μm^2) ([1]; Exponential Cells (+Tetrac)): 1180 μm^2
- Median Volume (μm^3) ([1]; Exponential Cells (+Tetrac)): 3850 μm^3
- Median cell area (μm^2) ([1]; Exponential Cells (+Tetrac)): 2814 μm^2
- nuclear/cell area (%) ([1]; Exponential Cells (+Tetrac)): 42%
- Mean nuclear area (μm^2) ([1]; Plateau phase Cells (+Tetrac)): 310 μm^2
- Median Volume (μm^3) ([1]; Plateau phase Cells (+Tetrac)): 2780 μm^3
- Median cell area (μm^2) ([1]; Plateau phase Cells (+Tetrac)): 700 μm^2
- nuclear/cell area (%) ([1]; Plateau phase Cells (+Tetrac)): 44%
- CFE (%) ([1]; Plateau phase Cells (+Tetrac), with feeder cells): 8.8%
- cell size relative to control GL261 cells ([1]; exponential phase): 1.4 times
- cell size relative to control GL261 cells ([1]; plateau phase): 1.9 times

Source: US9839614B2, “Nanoparticle and polymer formulations for thyroid hormone analogs, antagonists, and formulations and uses thereof” (NANOPHARMACEUTICALS LLC, priority 2009, dated 2017)
